Measured values published in patent US12398110B2, “Second generation inhibitors of mitochondrial permeability transition pore with improved plasma stability” (Oregon Health & Science University, priority 2019, dated 2025).
Read-outs that look alike come from different tables or passages of the source.

Columns and labels:
[1] = Plasma stability determination in mouse plasma; format: in vitro ADME; conditions: mouse, read-out: Mouse Plasma t1/2
Method: Plasma stability determination. The degradation of TR001 in the presence of mouse plasma (from Innovative Research) was used to predict the plasma stability of the compound to esterase catalyzed hydrolysis. A positive control for plasma cholinesterase, propantheline bromide, was included in all assays. Briefly, murine plasma was incubated with 1 μm TR001. Aliquots were removed at t=0, 5, 15, 30, and 60 and 120 min and quenched with acetonitrile containing structurally related compound (TR073) as the internal standard. The amount of TR001 remaining in the supernatant was assessed by LC-MS/MS in multiple reaction monitoring mode (MRM) using a 4000 QTRAP (SCIEX) with electrospray ionization source. The instrument was operated in negative mode with source parameters: source voltage […], GS1 50, GS2 50, CUR 30, TEM 650 and CAD gas MED. Optimal MRM transitions were obtained by direct infusion of the pure compound into the source. The mass spectrometer was interfaced to a Shimadzu (Columbia, MD) SIL-20AC XR auto-sampler maintained at 35° C. followed by 2 LC-20AD XR LC pumps. The internal standard and compound of interest were resolved using a Gemini-NX C18 50×2.1 mm column (Phenomenex) with 0.1% formic acid (solvent A) and 0.1% formic acid in acetonitrile (solvent B). The injection volume was 10 μL at a flow rate of 0.75 mL/min. The gradient elution was 10% B to 95% B over 5 min and held at 95% for 1 min before returning to start conditions. The column was maintained at 40° C. using a Shimadzu CTO-20AC column oven. Data were acquired using Analyst 1.6.2 and analyzed using Multiquant 3.0.1 software. The first-order rate constant for substrate depletion was determined from a linear least squares fit of the natural log of the percent parent compound remaining versus time. The rate constant was used to calculate the plasma half-life as an indicator of stability.

[2] = test system: mitochondria; conditions: from Roy et al. [12]; cited from earlier work
[3] = test system: mtPTP; test: Ca2+ overload induced mitochondrial swelling in isolated mouse liver mitochondria; format: biochemical
Method: We next sought to evaluate the effects of TR001-13 on mtPTP activity in vitro. This was performed on isolated mitochondria. In isolated mitochondria induction of mtPTP opening leads to mitochondrial swelling due to the oncotic pressure gradient created by matrix proteins >1.5 kDa that cannot diffuse through the open pore. In in vitro experiments, where isolated mitochondria are routinely suspended in sucrose-based isosmotic solutions, the change in mitochondrial size can be measured spectrometrically by detecting the decrease in light scattering at 540 nm.
(§1) Isolation of mitochondria. C57BL6/N mouse liver mitochondria were prepared from 2 to 6 month old male mice by standard differential centrifugation. Mice fed ad libitum were euthanized with CO2 followed cervical dislocation, their livers were existed and placed in a glass beaker containing ice-cold isolation buffer (IB: 0.25 m sucrose, 10 mm Tris-HCl, 0.1 mm EGTA-Tris, pH 7.4) supplemented with fatty acid free bovine serum albumin. Livers were then cut into small pieces with scissors, rinsed with ice-cold IB, and passed through a pre-chilled Potter homogenizer with Teflon pestle. The homogenate (˜30 mL per liver) was transferred to centrifuge tubes, and unbroken cells and nuclei were removed by centrifugation at 700 g for 10 min at 4° C. The supernatant containing mitochondria and other organelles was transferred to new tubes and centrifuged at 6000 g for 10 min at 4° C. The resulting supernatant was discarded and mitochondrial pellet was carefully suspended in ice-cold IB and spun at 9500 g for 5 min at 4° C. The pellet was suspended in IB to give a protein concentration of ˜60-80 mg/mL and stored on ice. Experiments were started immediately and completed within 5 h. Protein concentration was determined by the Biuret method.
Assessment of mitochondrial swelling. Changes in mitochondrial volume of isolated mouse liver mitochondria were followed in a 96-well clear assay plate at a final volume of 0.2 mL and 0.25 mg/mL mitochondrial protein. Absorbance was read for 30 min at 540 nm on a Tecan Infinite F200 plate reader. Activity of test compounds was addressed as follows: First, 0.1 mL of sucrose assay buffer (SAB: 0.250 m sucrose, 10 mm MOPS-Tris, 0.01 mm EGTA-Tris, 1.0 mm phosphoric acid-Tris, 10 mm glutamate and 5 mm malate, pH 7.4) supplemented with twice the CaCl2 concentration required to induce mitochondrial swelling (which was determined for each preparation of mitochondria, typically 50 μm) was dispensed to the assay plate. A set of wells also contained 2.0 mm EGTA (to prevent mitochondrial swelling). The test wells contained a range of concentrations (in 1:2 serial dilutions) of the compounds of interest or 2% DMSO. Experiments were started by the addition of 0.1 mL of mitochondrial suspension (0.5 mg/mL mitochondria in SAB without respiratory substrates) to the assay plates. EC50s±SE were determined with OriginPro software by applying Hill1 function fitting algorithm on average concentration response data of n=3-41 independent preparations.

[4] = test system: mtPTP; test: Ca2+ retention capacity (CRC) of isolated mouse liver mitochondria; format: biochemical
Method: CRC determines the Ca^2+ threshold required for mtPTP activation; inhibitors of mtPTP are expected to increase the Ca^2+ threshold required for mtPTP induction. Extramitochondrial Ca^2+ changes are detected using the membrane-impermeant Ca^2+ indicator, Calcium Green-5N.
as §1
Assessment of Ca^2+ retention capacity (CRC). CRC of isolated mouse liver mitochondria was assessed as follows: First, 0.1 mL of SAB were dispensed to a 96-well black assay plate in the presence of 2% DMSO (control wells) or varying concentrations of test compounds, in 1:2 serial dilutions. Then, 0.1 mL of 0.5 mg/mL mitochondria in SAB devoid of respiratory substrates, but supplemented with 1 μm Calcium Green-5N were added to all wells of the assay plate. A train of 10 μm CaCl2 pulses was added at 2 min intervals, and fluorescence intensity (ex/em 485/535 nm) was read on Tecan Infinite F200 plate reader.

[5] = test system: inner mitochondrial membrane potential; test: Rhodamine 123 (Rh123) uptake, mitochondrial membrane potential of isolated mouse liver mitochondria; format: biochemical
Description: We next evaluated the mitochondrial toxicity of the new triazole analogs by testing their ability to interfere with accumulation of the membrane-permeant cationic fluorescent dye rhodamine 123 (Rh123). The mitochondrial uptake of positively charged Rh123 is driven by the inside negative IMM potential, which is built by the respiratory chain or maintained by ATP hydrolysis if certain conditions are met. […] It should be noted, however, that toxicity for these compounds only occurs at ˜10-1000-fold higher concentrations compared to mtPTP inhibition, providing a good therapeutic window.
Assessment of mitochondrial membrane potential. Mitochondrial membrane potential—to evaluate toxicity—of isolated mouse liver mitochondria was assessed based on fluorescence quenching of the cationic fluorescent dye Rh123 upon its accumulation into mitochondrial matrix due to inside negative membrane potential. Compounds that interfere with the build-up or maintenance of IMM potential would shift Rh123 fluorescence to higher values compared to DMSO treated samples. Uncoupler FCCP was used to account for nonspecific fluorescence. First, 0.1 mL of SAB was dispensed to a 96-well black assay plate. A set of wells also contained 0.8 μm FCCP (to prevent Rh123 uptake). The test wells contained a range of concentrations (in 1:2 serial dilutions) of the compounds of interest or 2% DMSO. Then, 0.1 mL of 0.5 mg/mL mitochondria in SAB devoid of respiratory substrates but supplemented with 0.8 μm Rh123 were added to all wells of the assay plate. Fluorescence intensity (ex/em 485/535 nm) was read on a Tecan Infinite F200 plate reader for 7 min and value at 5 min was considered for analysis. EC50s±SE were determined with OriginPro software by applying Hill1 function fitting algorithm on average concentration response data of n=3 independent preparations.

[6] = isolated mouse liver mitochondria, average ± SEM, n = 3-41, read-out: Mitochondrial Swelling EC50
[7] = compound treated CRC to DMSO treated CRC0 ratio, 1.25 μM, average ± SEM, n = 3-25
[8] = interference with Rh123 uptake to mitochondria, average ± SEM, n = 3, read-out: Rh123 uptake EC50
[9] = Mouse Liver Mitochondria (MLM), comparative examples, read-out: Swelling EC50
[10] = Mouse Liver Mitochondria (MLM), comparative examples
[11] = Mouse Liver Mitochondria (MLM), comparative examples, read-out: Rh123 EC50

Structure (SMILES)	half-life at 1 µM [1]	mitochondrial toxicity [2]	EC50 [3, 9]	CRC/CRC0 at 1.25 μM [4, 10]	EC50 [5, 11]	also measured
COc1ccc(-c2cc(C(=O)Nc3cc(Cl)cnc3C)nn2C)cc1O [Compound 74]	2.52 h	exhibited mitochondrial toxicity				
COc1ccc(-c2cc(C(=O)Nc3cc(Cl)ccc3C)nn2C)cc1O [Compound 73]	1.42 h	exhibited mitochondrial toxicity				
Cc1ccc(Cl)cc1NC(=O)c1cc(-c2ccc(F)c(O)c2)[nH]n1 [Compound 72]	8.88 h	exhibited mitochondrial toxicity				
Cc1ccc(Cl)cc1NC(=O)c1cn(-c2ccc(C)c(O)c2Cl)nn1 [TR010, N-(5-chloro-2-methylphenyl)-1-(2-chloro-3-hydroxy-4-methylphenyl)-1H-1,2,3-triazole-4-carboxamide]						EC50 [3, 6]: > 20 µM; CRC/CRC0 at 1.25 μM [4, 7]: 1.1 ± 0.1; EC50 [5, 8]: > 40 µM
Cc1ccc(-n2cc(C(=O)Nc3cc(Cl)ccc3C)nn2)cc1O [drawing 67]			> 20 µM	1.4	> 40 µM	
Cc1ccc(Cl)cc1NC(=O)c1cn(-c2cccc(O)c2C)nn1 [TR012, N-(5-chloro-2-methylphenyl)-1-(3-hydroxy-2-methylphenyl)-1H-1,2,3-triazole-4-carboxamide]						mtPTP inhibitory activity (in words) ([3]; SAR discussion of Table 2): inactive; EC50 [3, 6]: 10.6 ± 1.4 µM; CRC/CRC0 at 1.25 μM [4, 7]: 1.4 ± 0.1; EC50 [5, 8]: > 40 µM
Cc1ccc(Cl)cc1NC(=O)c1cn(-c2ccc(C)c(O)c2Cl)nn1 [drawing 66]			> 20 µM	1	> 40 µM	
Cc1ccc(Cl)cc1NC(=O)c1cc(-c2ccc(F)c(O)c2)on1 [drawing 45]			0.002 µM	13.5	> 100 µM	
